From ChEMBL document CHEMBL3885881, “DrugMatrix”

Species on record: Rattus norvegicus
Assay: DrugMatrix - Regimen: Daily Repeat
Format: toxicity, organism-based, Sprague-Dawley
Parameters: regimen Daily Repeat, gender Male, age 6-8 weeks
Conditions: in vivo, sc, 0 mg/kg, route mini-PUMP - SUBCUTANEOUS, dose level Control, vehicle 100 % SALINE; for ABSOLUTE BASOPHIL / ABSOLUTE EOSINOPHIL / ABSOLUTE LYMPHOCYTE / ABSOLUTE MONOCYTE / ABSOLUTE SEGMENTED NEUTROPHIL / BASOPHIL / EOSINOPHIL / ERYTHROCYTE COUNT / HEMOGLOBIN / LEUKOCYTE COUNT / LYMPHOCYTE / MEAN CORPUSCULAR HEMOGLOBIN / MEAN CORPUSCULAR HEMOGLOBIN CONCENTRATION / MEAN CORPUSCULAR VOLUME / NUCLEATED RED BLOOD CELLS / PLATELET COUNT: tissue Blood
[1] = 72 h, tissue Plasma, time 3 day
[2] = 120 h, tissue Plasma, time 5 day

CNCC(O)c1ccc(O)c(O)c1 (stereo unspecified) [RACEPINEPHRINE]
ABSOLUTE BASOPHIL (72 h, time 3 day): 0 CELLS/uL | ABSOLUTE EOSINOPHIL (72 h, time 3 day): 77.17 CELLS/uL | ABSOLUTE LYMPHOCYTE (72 h, time 3 day): 14293.83 CELLS/uL | ABSOLUTE MONOCYTE (72 h, time 3 day): 354 CELLS/uL | ABSOLUTE SEGMENTED NEUTROPHIL (72 h, time 3 day): 1658.33 CELLS/uL | BASOPHIL (72 h, time 3 day): 0% | EOSINOPHIL (72 h, time 3 day): 0.5% | ERYTHROCYTE COUNT (72 h, time 3 day): 6.27 x10E6/uL | HEMOGLOBIN (72 h, time 3 day): 13.4 G/DL | LEUKOCYTE COUNT (72 h, time 3 day): 16.38 x10E3/uL | LYMPHOCYTE (72 h, time 3 day): 87.17% | MEAN CORPUSCULAR HEMOGLOBIN (72 h, time 3 day): 21.42 pg | MEAN CORPUSCULAR HEMOGLOBIN CONCENTRATION (72 h, time 3 day): 36.27 G/DL | MEAN CORPUSCULAR VOLUME (72 h, time 3 day): 59.03 fL | NUCLEATED RED BLOOD CELLS (72 h, time 3 day): 0 /100WBC | PLATELET COUNT (72 h, time 3 day): 904.67 x10E3/uL | ALANINE AMINOTRANSFERASE [1]: 48.33 u/L | ALBUMIN [1]: 3.82 G/DL | ALKALINE PHOSPHATASE [1]: 282.33 u/L | ASPARTATE AMINOTRANSFERASE [1]: 86.83 u/L | BLOOD UREA NITROGEN [1]: 20.17 mg/dL | CARBON DIOXIDE [1]: 34.67 mmol/L | CHLORIDE [1]: 102 MEQ/L | CHOLESTEROL [1]: 71.5 mg/dL | CREATININE [1]: 0.2 mg/dL | LACTATE DEHYDROGENASE [1]: 159 u/L | LIPASE [1]: 9 u/L | PHOSPHORUS [1]: 10.12 mg/dL | POTASSIUM [1]: 5.92 MEQ/L | SODIUM [1]: 147.8 MEQ/L | TOTAL BILIRUBIN [1]: 0.2 mg/dL | TOTAL PROTEIN [1]: 6.05 G/DL | ABSOLUTE BASOPHIL (120 h, time 5 day): 0 CELLS/uL | ABSOLUTE EOSINOPHIL (120 h, time 5 day): 0 CELLS/uL | ABSOLUTE LYMPHOCYTE (120 h, time 5 day): 14257.33 CELLS/uL | ABSOLUTE MONOCYTE (120 h, time 5 day): 326 CELLS/uL | ABSOLUTE SEGMENTED NEUTROPHIL (120 h, time 5 day): 3216.67 CELLS/uL | BASOPHIL (120 h, time 5 day): 0% | EOSINOPHIL (120 h, time 5 day): 0% | ERYTHROCYTE COUNT (120 h, time 5 day): 6.11 x10E6/uL | HEMOGLOBIN (120 h, time 5 day): 13.18 G/DL | LEUKOCYTE COUNT (120 h, time 5 day): 17.8 x10E3/uL | LYMPHOCYTE (120 h, time 5 day): 80.5% | MEAN CORPUSCULAR HEMOGLOBIN (120 h, time 5 day): 21.62 pg | MEAN CORPUSCULAR HEMOGLOBIN CONCENTRATION (120 h, time 5 day): 36.42 G/DL | MEAN CORPUSCULAR VOLUME (120 h, time 5 day): 59.37 fL | NUCLEATED RED BLOOD CELLS (120 h, time 5 day): 0 /100WBC | PLATELET COUNT (120 h, time 5 day): 1311 x10E3/uL | ALANINE AMINOTRANSFERASE [2]: 47 u/L | ALBUMIN [2]: 3.83 G/DL | ALKALINE PHOSPHATASE [2]: 260.33 u/L | ASPARTATE AMINOTRANSFERASE [2]: 76.17 u/L | BLOOD UREA NITROGEN [2]: 14.67 mg/dL | CARBON DIOXIDE [2]: 31.33 mmol/L | CHLORIDE [2]: 101.17 MEQ/L | CHOLESTEROL [2]: 75 mg/dL | LACTATE DEHYDROGENASE [2]: 147.33 u/L | LIPASE [2]: 9.33 u/L | PHOSPHORUS [2]: 10.97 mg/dL | POTASSIUM [2]: 6 MEQ/L | SODIUM [2]: 145.52 MEQ/L | TOTAL PROTEIN [2]: 5.83 G/DL | ABSOLUTE BASOPHIL ([…], time 14 day): 0 CELLS/uL | ABSOLUTE EOSINOPHIL ([…], time 14 day): 64.5 CELLS/uL | ABSOLUTE LYMPHOCYTE ([…], time 14 day): 12507.83 CELLS/uL | ABSOLUTE MONOCYTE ([…], time 14 day): 380.33 CELLS/uL | ABSOLUTE SEGMENTED NEUTROPHIL ([…], time 14 day): 2414 CELLS/uL | BASOPHIL ([…], time 14 day): 0% | EOSINOPHIL ([…], time 14 day): 0.5% | ERYTHROCYTE COUNT ([…], time 14 day): 6.1 x10E6/uL | HEMOGLOBIN ([…], time 14 day): 12.88 G/DL | LEUKOCYTE COUNT ([…], time 14 day): 15.37 x10E3/uL | LYMPHOCYTE ([…], time 14 day): 80.83% | MEAN CORPUSCULAR HEMOGLOBIN ([…], time 14 day): 21.18 pg | MEAN CORPUSCULAR HEMOGLOBIN CONCENTRATION ([…], time 14 day): 36.43 G/DL | MEAN CORPUSCULAR VOLUME ([…], time 14 day): 58.17 fL
